Here are results for 10 compounds from ChEMBL document CHEMBL1129895, “A novel series of matrix metalloproteinase inhibitors for the treatment of inflammatory disorders” (Bioorg Med Chem Lett, 1997).

One test addresses Neutrophil collagenase (Rattus norvegicus, UniProt O88766). The test can be described thus: Compound was tested for its inhibitory activity against Matrix metalloprotease-8 (MMP-8) in adjuvant arthritic rat model of rheumatoid arthritis.
Test [1] addresses T1, Matrix metalloproteinase-9 (Rattus norvegicus, UniProt P50282). Briefly: Compound was tested for its inhibitory activity against Matrix metalloprotease-9 (MMP-9) in adjuvant arthritic rat model of rheumatoid arthritis.
Test [2] concerns the target T1, Matrix metalloproteinase-9. The test can be described thus: Compound was tested for its inhibitory activity against Matrix metalloprotease-9 in adjuvant arthritic rat model of rheumatoid arthritis.
In a further test the test system is Rattus norvegicus. The test can be described thus: Inhibition of hind paw swelling was observed by the administration of compound at 40 mg/kg/day, perorally in adjuvant arthritic rat model of rheumatoid arthritis. The settings on record: route oral. Format: functional.

Molecules are shown by their SMILES. Square brackets hold non-standard residues; d marks the D form. Peptide text beside a SMILES is read from it. * marks the point of attachment. Propionyl = CCC(=O)*; Mpa = O=C(O)CCS

Neutrophil collagenase, sequence (O88766 whole entry): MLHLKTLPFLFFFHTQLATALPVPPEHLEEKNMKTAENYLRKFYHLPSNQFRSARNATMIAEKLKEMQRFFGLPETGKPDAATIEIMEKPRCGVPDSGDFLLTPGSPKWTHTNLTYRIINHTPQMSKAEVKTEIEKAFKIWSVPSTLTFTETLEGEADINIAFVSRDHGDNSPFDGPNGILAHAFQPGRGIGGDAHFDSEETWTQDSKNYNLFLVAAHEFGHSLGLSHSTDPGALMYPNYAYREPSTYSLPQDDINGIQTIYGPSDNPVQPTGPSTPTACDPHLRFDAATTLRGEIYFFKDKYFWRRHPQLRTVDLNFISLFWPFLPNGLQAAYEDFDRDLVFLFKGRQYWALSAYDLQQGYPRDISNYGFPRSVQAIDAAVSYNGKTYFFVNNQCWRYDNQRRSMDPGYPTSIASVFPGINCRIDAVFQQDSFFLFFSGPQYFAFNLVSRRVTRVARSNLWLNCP
T1 sequence (P50282 whole entry): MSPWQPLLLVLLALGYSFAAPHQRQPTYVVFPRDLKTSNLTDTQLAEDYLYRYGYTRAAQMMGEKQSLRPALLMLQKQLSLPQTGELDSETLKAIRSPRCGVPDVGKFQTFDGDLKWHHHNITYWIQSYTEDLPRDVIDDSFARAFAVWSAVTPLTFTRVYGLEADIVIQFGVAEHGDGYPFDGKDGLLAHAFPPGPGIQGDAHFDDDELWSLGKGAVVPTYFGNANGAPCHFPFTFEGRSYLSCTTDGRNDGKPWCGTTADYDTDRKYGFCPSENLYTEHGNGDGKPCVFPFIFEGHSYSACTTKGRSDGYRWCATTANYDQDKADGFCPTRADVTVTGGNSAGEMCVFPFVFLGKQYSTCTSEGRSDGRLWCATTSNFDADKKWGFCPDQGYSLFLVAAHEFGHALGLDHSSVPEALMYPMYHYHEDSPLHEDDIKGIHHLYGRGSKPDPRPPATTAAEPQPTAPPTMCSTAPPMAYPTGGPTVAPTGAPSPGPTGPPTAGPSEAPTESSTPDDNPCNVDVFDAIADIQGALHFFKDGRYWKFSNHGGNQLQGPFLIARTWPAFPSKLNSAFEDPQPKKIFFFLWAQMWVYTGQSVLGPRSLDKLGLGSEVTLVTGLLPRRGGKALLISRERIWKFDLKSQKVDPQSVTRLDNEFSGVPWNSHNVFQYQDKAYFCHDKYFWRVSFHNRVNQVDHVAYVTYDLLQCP

Usually IC50 stands for the point on the concentration scale where inhibition reaches its midpoint. As for `CNC(=O)[C@H](Cc1cscn1)NC(=O)[C@H](CC(C)C)NC(=O)CS`, the IC50 at Neutrophil collagenase came to 12 nM; in test [1], 7 nM.
On to `CNC(=O)[C@H](Cc1ccccc1)NC(=O)[C@H](CSC)NC(=O)CS`, for which the half-maximal inhibitory concentration (IC50) on Neutrophil collagenase turned out to be 6 nM; in test [2], 13 nM.
With `CNC(=O)[C@H](Cc1ccccc1)NC(=O)[C@H](C[S+](C)[O-])NC(=O)CS` (stereo partly specified), the IC50 at Neutrophil collagenase came out at 480 nM; in test [2], 350 nM.
The corresponding values for `CNC(=O)[C@H](Cc1ccccc1)NC(=O)[C@@H](NC(=O)CS)C(C)O` (stereo partly specified) are 4100 nM and 1700 nM.
A word on the inhibition in vivo: it is the share of the control response that was lost under treatment. Consider `CNC(=O)[C@H](Cc1ccccc1)NC(=O)[C@H](CC(C)C)NC(=O)CS`, for which the values for the IC50 (on Neutrophil collagenase; in test [2]) were 50 nM and 90 nM, respectively. In addition, the inhibition in vivo at 40 mg/kg/day with Rattus norvegicus worked out at 40%.
For the compound `CNC(=O)[C@H](Cc1ccccc1)NC(=O)[C@H](CC(C)C)NC(=O)CSC`, the concentration for half-maximal inhibition (IC50) was 2600 nM on Neutrophil collagenase and 4600 nM in test [2].
With `CNC(=O)[C@H](Cc1c[nH]c2ccccc12)NC(=O)[C@H](CSC)NC(=O)CS`, the results for the IC50 (on Neutrophil collagenase; in test [1]) were 20 nM and 120 nM, respectively.
The corresponding values for `CNC(=O)[C@H](Cc1c[nH]c2ccccc12)NC(=O)[C@H](CC(C)C)NC(=O)CS` are 80 nM and 30 nM.
Turning to `CCC(=O)N[C@@H](CC(C)C)C(=O)N[C@@H](Cc1ccccc1)C(=O)NC` (Propionyl-Leu-Phe-NHMe), the figures for the IC50 (at Neutrophil collagenase; in test [2]) were more than 100000 nM and 30000 nM, respectively.
Regarding `CNC(=O)[C@H](Cc1ccccc1)NC(=O)[C@H](CC(C)C)NC(=O)CCS` ([Mpa]-Leu-Phe-NHMe), the values for the IC50 (at Neutrophil collagenase; in test [2]) were 5100 nM and 9600 nM, respectively.
